Data from patent US11208405B2, “Pyrrole derivatives as PLK1 inhibitors” (SENTINEL ONCOLOGY LIMITED, priority 2017, dated 2021).
Where a name gives a salt, the structure may show the parent alone.

Columns and labels:
Type in all cases: cell-based
HCT116 cells = assay: Effects on HCT116 colorectal cancer cell viability (cell titre blue, 72 hours); details: Homo sapiens, HCT-116, HCT116 cell line
Experimental: Assay to Measure the Effects of Compounds of the Invention on HCT116 Colorectal Cancer Cell Viability
The following protocol was used to measure the effects of compounds of the invention on HCT116 cell viability.
1. HCT116 cells were grown in RPM11640 media supplemented with Glutamax and 10% FBS in a 37° C./5% CO2 incubator.
2. Growing culture of HCT116 cells were trypsinised, counted and diluted to give 10,000 cells/mL in an appropriate volume, allowing at least 6 mL of cells per plate.
3. 200 μL of PBS were added to all the outer wells of a flat-bottomed (8×12) 96-well TC plate. 100 μL of media were added only to wells in column 11 of the plates (these wells provided a blank for the cell titre blue assay). Two compounds were assayed on each plate.
4. 100 ul of 10,000 cells/mL HCT116s were plated in rows B-G of each plate.
5. The cells were incubated (37° C. 5% CO2) for 24 hours before treating with compounds.
6. An 8 mM compound stock in DMSO was prepared for all compounds to be tested. 2.5 μL of the compound stock was added to 1000 μL growth medium in a 96-well deep well block and serial dilutions were prepared across the plate by transferring 500 μL into wells containing 500 μL growth medium+0.25% DMSO to give eight concentrations of compound (this ensured a constant amount of DMSO at all concentrations of compound). When making up growth medium+DMSO, an amount of 5 ml was allowed per compound to be diluted.
7. 3 rows of cells were treated with 100 μL/well from each row on the dilution plate so that each cell plate is treated with a single compound. This gave a final volume in all wells of 200 μL and a titration of compound from a final concentration of 10 uM down to 78 nM.
8. The cells were incubated (37° C. 5% CO2) for 72 hours.
9. 5 ul cell titre blue reagent (Promega) were added to all wells except the edge wells (which contain PBS only) and incubated (37° C. 5% CO2) for 2.5-3 hours.
10. Fluorescence was measured on a suitable plate reader using a 530-570 nm filter set for excitation and a 580-620 nm filter set for fluorescence emission.
11. Data were analysed using an appropriate graphing package (such as GraphPad Prism). Data were expressed as the concentration of compound causing a 50% inhibition of cell viability or GI50.

HeLa cells = assay: Arresting cells in mitosis (Mitotic Index, phosphorylated Histone H3 immunofluorescence); details: HeLa cell line, 24 hours; for EC50: Homo sapiens, Mitotic Index, read-out: EC50
Experimental: Assay to Measure the Effects of Compounds of the Invention on Arresting Cells in Mitosis
Inhibiting the ability of PLK1 to bind to its phosphopeptide binding partners through the PBD causes cells to arrest in mitosis. Experimentally, this is measured by assessing the number of cells which are in mitosis at a certain time after treatment with a PLK1-PBD inhibitor by immunofluorescent detection of phosphorylated Histone H3 (pH3), a marker which is only present in mitotic cells. PLK1-PBD inhibitors are expected to cause a dose-dependent increase in pH3-positive cells, which is reported as Mitotic Index (MI)—the percentage of cells which, at a given time, are positive for this mitotic mark. The following protocol has been used to measure MI: • 1. Plate HeLa cells at 10,000/well in 100 μL/well in clear flat-bottom 96-well plates and incubate overnight. • 2. Immediately prior to treatment, dilute compounds in medium in a 96-well round-bottom plate. Make up all compounds at 5 times final desired concentration on cells, and serially dilute 1:2 across the plate ensuring that there is 100 μL of each concentration (start with 200 μl of the top concentration on the left of the plate). […] Treat cells by adding 25 μL from the compound dilution plate to triplicate wells. • 4. Incubate cells with compound for 24 hours. • 5. After 24 hours, fixation and staining is carried out as follows: • 6. Dilute 37% formaldehyde in PBS to give a 12.95% solution by adding 3.5 mL formaldehyde to 6.5 mL of PBS. • 7. Add 50 μL of formaldehyde fixation solution directly to each well of cells (which already contain 125 μL medium). • 8. Incubate at room temp for 10 minutes. • 9. Remove fixative and add 100 μL/well PBS+0.1% Triton X-100 for 10 minutes. • 10. Aspirate and add 100 μL/well PBS+1% BSA. • 11. Aspirate and add 50 μL/well of primary antibody (anti-PH3 [1:2000]/anti-MPM2 [1:1000]) diluted in PBS+1% BSA. Incubate for 1 hour. • 12. Wash×2 with 100 μL/well PBS+1% BSA. • 13. Add 50 μL/well of secondary antibody plus Hoechst stain (anti-rabbit Alexafluor 488 [1:500]; anti-mouse Alexafluor 546 [1:500]+Hoechst 33342 [1:2500 final concentration=4 μg/mL])diluted in PBS+1% BSA. Incubate for 1 hour. • 14. Wash twice with 100 μL/well PBS+1% BSA. • 15. Aspirate and add 100 μL/well PBS. Plates can be stored at 4° C. in PBS for several weeks before scanning on the Cellomics Arrayscan. […] Scan on Cellomics using Target Activation Bioapplication. • 17. MI data emerging from the Cellomic Bioapplication can be used to plot MI versus compound concentration, and subsequently used to generate an EC50 value for each compound using an appropriate graphing/curve-fitting package such as GraphPad Prism.

wild-type HeLa cell line = assay: Wild-type versus KRAS HeLa cell viability: wild-type KRAS transgene; details: Homo sapiens; HeLa cells expressing wild-type KRAS, 72 hours; read-out: WT GI50
Experimental: (§1) Assay to Measure the Effects of Compounds of the Invention on Wild-Type Versus KRAS HeLa Cell Viability
(§2) Identifying synthetic lethal interactions between targeted small molecule therapies and characterised oncogenic mutations is a goal of modern oncology drug discovery efforts. To this end, PLK1-PBD inhibitors were tested on HeLa cells engineered to inducibly express wild-type or oncogenic KrasG12V transgenes using the FLP-in/T-Rex system (Invitrogen). Cells were plated, and then treated with or without Doxycycline to induce transgene expression, and then treated with serially-diluted PBD inhibitors. After 72 hours of incubation, cell viability was assessed using the Cell Titre Blue reagent (Promega) and a BMG Pherastar plate reader. The effect of PBD inhibition on cell viability with either wild-type or oncogenic G12V KRAS was assessed using the graphing/curve-fitting packages in GraphPad Prism.

KRAS G12V HeLa cell line = assay: Wild-type versus KRAS HeLa cell viability: oncogenic KrasG12V transgene; details: Homo sapiens; HeLa cells expressing KRAS G12V, 72 hours
Experimental: as §1, §2

`CN1CCC(CNC(=O)c2cccc(-c3ccc(-c4ccc(Br)cc4)n3-c3ccccc3C(F)(F)F)c2)CC1` [Example 10] was tested, and the GI50 (HCT116 cells) was 340 nM, the “% mitotic cells” value (HeLa cells) was 62% and the EC50 (HeLa cells) was 780 nM.

With `CN1CCC(NC(=O)c2cccc(-c3ccc(-c4ccc(Br)cc4)n3-c3ccccc3C(F)(F)F)c2)CC1` [Example 11, hydrochloride] the GI50 (HCT116 cells) was 360 nM, the “% mitotic cells” value (HeLa cells) was 54% and the EC50 (HeLa cells) was 800 nM.

For `CN(C)CCN(C)C(=O)c1cccc(-c2ccc(-c3ccc(Br)cc3)n2-c2ccccc2C(F)(F)F)c1` [Example 12, hydrochloride], the GI50 (HCT116 cells) was 290 nM, the “% mitotic cells” value (HeLa cells) was 62% and the EC50 (HeLa cells) was 790 nM.

With `CN1CC[C@@H](NC(=O)c2cccc(-c3ccc(-c4ccc(Br)cc4)n3-c3ccccc3C(F)(F)F)c2)C1` [Example 13, hydrochloride] the GI50 (HCT116 cells) was 660 nM, the “% mitotic cells” value (HeLa cells) was 71% and the EC50 (HeLa cells) was 750 nM.

`CN(C)CCNC(=O)c1ccc(Cl)c(-c2ccc(-c3ccc(Br)cc3)n2-c2ccccc2C(F)(F)F)c1` [Example 15, hydrochloride] was tested, and the GI50 (HCT116 cells) was 2180 nM, the GI50 (wild-type HeLa cell line) was 650 nM and the GI50 (KRAS G12V HeLa cell line) was 380 nM.

For `CC(C)c1ccc(-c2ccc(-c3cccc(C(=O)NCCN(C)C)c3)n2-c2ccccc2C(F)(F)F)cc1` [Example 22, hydrochloride], the GI50 (HCT116 cells) was 2750 nM, the “% mitotic cells” value (HeLa cells) was 5% and the EC50 (HeLa cells) was greater than 10000 nM.

Compound `CN(C)CCNC(=O)c1cccc(-c2ccc(-c3ccc(Br)cc3)n2-c2ccccc2O)c1` [Example 25, hydrochloride] has a GI50 (HCT116 cells) of 3890 nM, a GI50 (wild-type HeLa cell line) of 2510 nM and a GI50 (KRAS G12V HeLa cell line) of 3580 nM.

With `CN(C)CCNC(=O)c1ccc(-c2ccc(-c3ccccc3)n2-c2ccccc2C(F)(F)F)cc1` [Example 26, hydrochloride] the GI50 (HCT116 cells) was 120 nM, the GI50 (wild-type HeLa cell line) was 120 nM and the GI50 (KRAS G12V HeLa cell line) was 70 nM.

In the case of `CN(C)CCNC(=O)c1ccc(-c2ccc(-c3ccc(Br)cc3)n2-c2ccccc2C(F)(F)F)cn1` [Example 28], the GI50 (wild-type HeLa cell line) is reported as 60 nM and the GI50 (KRAS G12V HeLa cell line) is reported as 30 nM.

With `CN(C)CCCNC(=O)c1ccc(-c2ccc(-c3ccc(Br)cc3)n2-c2ccccc2C(F)(F)F)cc1` [Example 34] the GI50 (HCT116 cells) was 80 nM, the GI50 (wild-type HeLa cell line) was 130 nM and the GI50 (KRAS G12V HeLa cell line) was 90 nM.

In the case of `CN(C)CCCOc1ccc(-c2ccc(-c3ccc(Br)cc3)n2-c2ccccc2C(F)(F)F)cc1` [Example 35, hydrochloride], the GI50 (HCT116 cells) is reported as 220 nM, the GI50 (wild-type HeLa cell line) is reported as 210 nM and the GI50 (KRAS G12V HeLa cell line) is reported as 140 nM.

Compound `CN(C)CCNC(=O)c1ccc(-c2ccc(-c3ccc(Br)cc3)n2-c2ccccc2C(F)(F)F)c(Cl)c1` [Example 36, hydrochloride] has a GI50 (HCT116 cells) of 30 nM, a GI50 (wild-type HeLa cell line) of 120 nM and a GI50 (KRAS G12V HeLa cell line) of 60 nM.

For `CN(C)CCNC(=O)c1ccc(-c2ccc(-c3ccccc3)n2-c2ccccc2C(F)(F)F)c(Cl)c1` [Example 37, hydrochloride], the GI50 (HCT116 cells) was 20 nM, the GI50 (wild-type HeLa cell line) was 50 nM and the GI50 (KRAS G12V HeLa cell line) was 20 nM.

In the case of `CN(C)CCNC(=O)c1ccc(-c2ccc(-c3ccc(Br)cc3)n2-c2cnccc2C(F)(F)F)cc1` [Example 41], the GI50 (HCT116 cells) is reported as 50 nM, the GI50 (wild-type HeLa cell line) is reported as 40 nM and the GI50 (KRAS G12V HeLa cell line) is reported as 20 nM.

`CN(C)CCNC(=O)c1ccc(-c2ccc(-c3ccc(F)nc3)n2-c2ccccc2C(F)(F)F)cc1` [Example 42, hydrochloride] showed a GI50 (HCT116 cells) of 380 nM, a GI50 (wild-type HeLa cell line) of 130 nM and a GI50 (KRAS G12V HeLa cell line) of 50 nM.

In the case of `COc1ccc(-c2ccc(-c3ccc(Br)cc3)n2-c2ccccc2C(F)(F)F)cc1C(=O)NCCN(C)C` [Example 53, hydrochloride], the GI50 (HCT116 cells) is reported as 560 nM, the GI50 (wild-type HeLa cell line) is reported as 340 nM and the GI50 (KRAS G12V HeLa cell line) is reported as 220 nM.

`CN(C)CCNC(=O)c1cccc(-c2ccc(-c3ccc(Br)cc3)n2-c2ccccc2N)c1` [Example 56, hydrochloride] gave a GI50 (HCT116 cells) of 2710 nM, a GI50 (wild-type HeLa cell line) of 2190 nM and a GI50 (KRAS G12V HeLa cell line) of 2520 nM.

`CN(C)CCNC(=O)c1ccc(-c2ccc(-c3ccc(C#N)cc3)n2-c2ccccc2C(F)(F)F)cc1` [Example 57] was tested, and the GI50 (HCT116 cells) was 60 nM, the GI50 (wild-type HeLa cell line) was 50 nM and the GI50 (KRAS G12V HeLa cell line) was 30 nM.

Compound `CN(C)CCCNC(=O)c1ccc(-c2ccc(-c3ccc(Cl)cc3)n2-c2ccccc2C(F)(F)F)cc1` [Example 58] has a GI50 (HCT116 cells) of 30 nM, a GI50 (wild-type HeLa cell line) of 30 nM and a GI50 (KRAS G12V HeLa cell line) of 20 nM.

`CN(C)CCNC(=O)c1ccc(-c2ccc(-c3ccc(F)cc3)n2-c2ccccc2C(F)(F)F)cc1` [Example 59, hydrochloride] was tested, and the GI50 (HCT116 cells) was 50 nM, the GI50 (wild-type HeLa cell line) was 10 nM and the GI50 (KRAS G12V HeLa cell line) was 8 nM.
